Patent US12517131B2, “Methods for labeling eukaryotic cells from a multicellular organism as well as for treating and/or diagnosing a cancer using modified monosaccharide compounds” (DIAMIDEX, priority 2019, dated 2026)
Where “and” joins values, the source holds several entries; their conditions need not be identical. Equal values may be shown once.

Tests used:
[1] = system: human urinary bladder carcinoma (T24); test: Labeling of bladder cells with Ara-N3 probe, copper-free click, fluorescence microscopy; type: cell-based; settings: 24 h, Ara-N3 10 mM
Experimental: The human uroepithelial cells (SV-HUC-1) and the human urinary bladder carcinoma (T24) were purchased from ATCC (Manassas, Van USA). These cell lines were grown in RPMI 1640 with Glutamine 1 medium (Lonza Biowhttaker) supplemented by 10% fetal bovine serum (FBS) (VWR international S.A.S). The culture medium was changed every two days. The passaging of cells was performed using Tryp-LE express 1× (Gibco). The cell viability was estimated using trypan blue exclusion tests.
SV-HUC-1 and T24 cells were seeded in 24-well plates, at density of 5*10^4 cells/well. Then, cells were incubated at 37° C., 5% in CO2 during 24 hours. Thereafter, the culture medium of each well was discarded, and attached cells were washed twice with Phosphate Buffer Salin (PBS) (Lonza Biowhittaker), before to be exposed to Ara-N3 probe (10 mM). Probe was added to culture medium with different FBS concentrations (3% and 10%). Then, cells were incubated at 37° C., 5% in CO2 for 24 hours again. The control cells were cultured using culture medium supplemented with 5% or 10% FBS, without addition of Ara-N3.
(§1) The fluorescence Assimilation of Ara-N3 probes was visualized by copper-free click chemistry using sulfo-DBCO-biotin (1 mM), followed by labeling with a mouse anti-biotin Alexa Fluor 488 antibody conjugate (0.62 mg/ml stock, Jackson ImmunoResearch, dilution 1/10). The click reaction was carry-out as following: At 24 h incubation times, the culture mediums were removed, and attached cells were washed twice with PBS. Cells were detached with Tryp-LE, washed twice with PBS, and centrifuged at 13000 g for 2 min. The cellular pellets were resuspended with 10 μL of sulfo-DBCO-biotin and incubated 30 min in the dark, and at 37 C°. Then, cells were washed twice with PBS, centrifuged, and cellular pellets were resuspended with 10 μL of a mouse anti-biotin antibody solution, before to be incubated at room temperature in dark. Thereafter, cells were washed twice with PBS and small cellular suspension spots (5 μL) were put in Polysine® adhesion slides (VWR international S.A.S), in the dark room, until dry (20 min). The spots were fixed with 4% paraformaldehyde during 20 min, in dark and room temperature. Slides were then washed twice with PBS, before recovering with square cover glasses (VWR international S.A.S) using glycerol Mounting Medium (Dako) and stored at 4° C. in dark room.
(§2) The fluorescence acquisition was recorded using Olympus Microscopy IX83 (Olympus Life Science) equipped with a 60×/1.3 […]/1.4 SRI (silicone refractive index) objective, and Hamamatsu oreca flash 4 LT camera with 109 nm/pixel calibrated pixel size. The excitation light was emitted by X-CITE 120LED using the AT180/30X excited filter and signal was monitored using AT535/40m emission filter. Green light exposition time was 600 ms and white light exposition time was determined by DIC methods at […]. The acquisition area size analyzed by the Celisens dimension V1.16 software was different depending on the cell number containing in the spot.
(§3) The images were processed using count and measure unit of the Cellsens dimension V1.16 software. The background noise was deleted as follows: ROI were first defined on the background of the image and the average pixel intensity was calculated. The value thus obtained was subtracted from all pixels of the image. The fluorescence intensity of each cell was determined from a threshold set at a value of 3030. All pixels that have intensity below 3030 were not counted.

A375 (vs PIG) = test: Labeling of cancer and non-cancer cells, fluorescence signal ratio; type: cell-based, human; settings: A375 (26 h) vs PIG (26 h); Ara-N3 10 mM; FBS 10%; one doubling time
Experimental: as §1, §2, §3
(§4) The same experiments as in example 2 with other cancer and corresponding non cancer cells were performed. The culture media were adapted to the tested cells and supplemented by 10% fetal bovine serum (FBS). Ara-N3 probe (10 mM) was added to culture media with FBS concentration (10%). The incubation times corresponded to one doubling time or twice doubling time of the tested cells (see table below).
(§5) The fluorescence signal cancer/non cancer ratios were calculated based on fluorescence intensities obtained with Ara-N3 tested on cancer and corresponding non cancer cells.

[2] = system: A549 (vs Bronchial epithelial cell); test: as above; type: cell-based, human; settings: A549 (doubling time 40 h) vs Bronchial epithelial cell (40 h); Ara-N3 10 mM; FBS 10%; test at 2 doubling time
Experimental: as §1, §2, §3, §4, §5

HL-60 (vs Lymphocytes T) = test: as above; type: cell-based, human; settings: HL-60 (28 h) vs Lymphocytes T (24 h); Ara-N3 10 mM; FBS 10%; one doubling time
Experimental: as §1, §2, §3, §4, §5

MDA MB175 (vs HME-1) = test: as above; type: cell-based, human; settings: MDA MB175 (30 h) vs HME-1 (30 h); Ara-N3 10 mM; FBS 10%; one doubling time
Experimental: as §1, §2, §3, §4, §5

NAMALWA (vs B12-F8) = test: as above; type: cell-based, human; settings: NAMALWA (20 h) vs B12-F8 (24 h); Ara-N3 10 mM; FBS 10%; one doubling time
Experimental: as §1, §2, §3, §4, §5

[3] = system: OCI-Ly10 (vs Isolated primary B cells); test: as above; type: cell-based, human; settings: OCI-Ly10 (24 h) vs Isolated primary B cells; Ara-N3 10 mM; FBS 10%
Experimental: as §1, §2, §3, §4, §5

[4] = system: OCI-Ly3 (vs Isolated primary B cells); test: as above; type: cell-based, human; settings: OCI-Ly3 (24 h) vs Isolated primary B cells; Ara-N3 10 mM; FBS 10%
Experimental: as §1, §2, §3, §4, §5

PANC (vs HPNE) = test: as above; type: cell-based, human; settings: PANC (32 h) vs HPNE (32 h); Ara-N3 10 mM; FBS 10%; one doubling time
Experimental: as §1, §2, §3, §4, §5

[5] = system: SU-DHL-4 (vs Isolated primary B cells); test: as above; type: cell-based, human; settings: SU-DHL-4 (40 h) vs Isolated primary B cells; Ara-N3 10 mM; FBS 10%
Experimental: as §1, §2, §3, §4, §5

[N-]=[N+]=NC[C@H]1OC(O)[C@@H](O)[C@@H]1O (stereo partly drawn) [Ara-N3, 5-azido-5-deoxy-D-arabinofuranose]
labelled cells %, T24 % ([1]; Intensity/μm^2 0-50000, FBS 3%, n = 226): 2.21%
labelled cells %, T24 % ([1]; Intensity/μm^2 0-50,000, FBS 10%, n = 282): 1.42%
labelled cells %, T24 % ([1]; Intensity/μm^2 50,000-100,000, FBS 3%, n = 226): 2.65%
labelled cells %, T24 % ([1]; Intensity/μm^2 50,000-100,000, FBS 10%, n = 282): 2.13%
labelled cells %, T24 % ([1]; Intensity/μm^2 100,000-150,000, FBS 3%, n = 226): 2.65%
labelled cells %, T24 % ([1]; Intensity/μm^2 100,000-150,000, FBS 10%, n = 282): 2.48%
labelled cells %, T24 % ([1]; Intensity/μm^2 150,000-200,000, FBS 3%, n = 226): 5.75%
labelled cells %, T24 % ([1]; Intensity/μm^2 150,000-200,000, FBS 10%, n = 282): 1.42%
labelled cells %, T24 % ([1]; Intensity/μm^2 200,000-250,000, FBS 3%, n = 226): 3.98%
labelled cells %, T24 % ([1]; Intensity/μm^2 200,000-250,000, FBS 10%, n = 282): 2.13%
labelled cells %, T24 % ([1]; Intensity/μm^2 250,000-300,000, FBS 3%, n = 226): 3.54%
labelled cells %, T24 % ([1]; Intensity/μm^2 250,000-300,000, FBS 10%, n = 282): 1.42%
labelled cells %, T24 % ([1]; Intensity/μm^2 300,000-350,000, FBS 3%, n = 226): 2.21%
labelled cells %, T24 % ([1]; Intensity/μm^2 300,000-350,000, FBS 10%, n = 282): 1.77%
labelled cells %, T24 % ([1]; Intensity/μm^2 350,000-400,000, FBS 3%, n = 226): 3.98%
labelled cells %, T24 % ([1]; Intensity/μm^2 350,000-400,000, FBS 10%, n = 282): 2.48%
labelled cells %, T24 % ([1]; Intensity/μm^2 400,000-450,000, FBS 3%, n = 226): 2.65%
labelled cells %, T24 % ([1]; Intensity/μm^2 400,000-450,000, FBS 10%, n = 282): 3.19%
labelled cells %, T24 % ([1]; Intensity/μm^2 450,000-500,000, FBS 3%, n = 226): 3.54%
labelled cells %, T24 % ([1]; Intensity/μm^2 450,000-500,000, FBS 10%, n = 282): 2.13%
labelled cells %, T24 % ([1]; Intensity/μm^2 >500,000, FBS 3%, n = 226): 66.81%
labelled cells %, T24 % ([1]; Intensity/μm^2 >500,000, FBS 10%, n = 282): 79.42% and 79.43%
Cancer/Non Cancer Ratio (fluorescence signal) (A375 (vs PIG)): 3.5
Cancer/Non Cancer Ratio (fluorescence signal) [2]: 7.7
Cancer/Non Cancer Ratio (fluorescence signal) (HL-60 (vs Lymphocytes T)): 1.6
Cancer/Non Cancer Ratio (fluorescence signal) (MDA MB175 (vs HME-1)): 2
Cancer/Non Cancer Ratio (fluorescence signal) (NAMALWA (vs B12-F8)): 2.3
Cancer/Non Cancer Ratio (fluorescence signal) [3]: 2.1
Cancer/Non Cancer Ratio (fluorescence signal) [4]: 6.2
Cancer/Non Cancer Ratio (fluorescence signal) (PANC (vs HPNE)): 1.8
Cancer/Non Cancer Ratio (fluorescence signal) [5]: 2.5
